# Where two headings read alike, the source gives them in different places.
# Tested on: anti-VEGF aptamer
# Conditions: for change in current on injection of VEGF: FET sensor with anti-VEGF aptamer, PBS base current, FIG. 2A
# Excerpt: Electrodes using a gold thin film and silver nanowires were patterned on a silicon substrate using a photolithography method, and a semi-conductive layer was placed between the electrodes. In this case, silver nanowires were used as a material of the semi-conductive layer. Thereafter, an aptamer (anti-VEGF aptamer) capable of being coupled to a dry eye syndrome biomarker was coupled to the semi-conductive layer.
# Specifically, a silver nanowire channel was immersed in an 3-aminopropyldimethyl-ethoxysilane (APDES)/ethanol solution to introduce an amine group, and the silver nanowire channel was immersed in a sodium carbonate buffer including 1 wt % succinic anhydride to substitute the amine group with a carboxyl group. Then, after the silver nanowire channel is immersed in a phosphate buffered saline (PBS) solution, 1-ethyl-3(3-dimethyl aminopropyl)carbodiimide hydro-chloride (EDC) and sulfa N-hydroxysuccinimide (sulfa-NHS) were added to form an amide group. An aptamer solution was introduced into the channel, into which the amide group was introduced, to couple the channel and the probe. ?
# A VEGF was injected into the sensor in real time to monitor an intensity of a current flowing in the silver nanowire channel.
# Specifically, 200 μL of PBS was dropped onto the FET sensor to set a base current for 30 minutes, and then, a change in current generated by injecting a specific concentration of a VEGF was observed. ?
substance,measurement,setting,value
vascular endothelial growth factor [VEGF],change in current on injection of VEGF,104 pM VEGF injected,no difference in current
same,change in current on injection of VEGF,1.04 nM VEGF injected,large change
same,change in current on injection of VEGF,52 nM VEGF injected,large change
same,"stabilized current after VEGF injection, averaged per section","compared with the initial base current, FIG. 2B",higher than an initial base current

# — patent US20220386863A1, “SMART CONTACT LENS FOR DIAGNOSIS AND TREATMENT OF DRY EYE SYNDROME” (priority 2020, published 2022)
